The record followed here is ChEMBL document CHEMBL1201862, “PubChem BioAssay data set” (2004).

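Results reflect a 48-hour exposure of cells in 96-well plates to compound at five concentrations. GI50 = concentration required for 50% inhibition of growth.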 Activity calls are given as the source filed them. No stated cut-off is given here; in the data, active = GI50 up to about 1.1 µM and inactive = higher.

Some test systems named below: 786-0; HCT-116; HCT-15; HL-60; M14; NCI-H226; NCI-H460; OVCAR-4; OVCAR-5; OVCAR-8; RXF 393; SF-295; SF-539; SK-MEL-2; SNB-75; T47D; TK-10; UACC-257; UO-31; Malme-3M.
What all share (experiment): NCI anticancer screen, dose series, 48 h

`CC1=CC(=O)/C(=C/NC(=S)Nc2ccc(S(N)(=O)=O)cc2)C(=O)O1`: the GI50 was > 100 µM (inactive) in the assay with 786-0; > 100 µM (inactive) with HCT-116; greater than 100 µM in the assay with HCT-15; > 100 µM (inactive) in the assay on HL-60; > 100 µM (inactive) in the assay on M14; > 100 µM (inactive) with NCI-H226. In addition, the GI50 in the assay on NCI-H460 is > 100 µM (inactive); with OVCAR-4, > 100 µM (inactive); with OVCAR-5, > 100 µM (inactive); in the assay with OVCAR-8, > 100 µM (inactive); with RXF 393, 83.6 µM (inactive); in the assay with SF-295, > 100 µM (inactive). Besides, the GI50 in the assay with SF-539, with SK-MEL-2, in the assay on SNB-75, with T47D, in the assay with TK-10 and in the assay with UACC-257 was > 100 µM (inactive) throughout. In the assay with UO-31, the GI50 was > 100 µM (inactive).

On to `CC(O)CNC(=O)Nc1c(C(F)(F)F)cc(-c2ccccc2)[nH]c1=O` (stereo unspecified), for which the GI50 is > 100 µM (inactive) in the assay on 786-0; > 100 µM (inactive) in the assay on HCT-116; greater than 100 µM in the assay on HCT-15; 0.343 µM (active) in the assay on HL-60; > 100 µM (inactive) in the assay with M14; > 100 µM (inactive) with Malme-3M. Moreover, the GI50 in the assay with NCI-H226, with NCI-H460, in the assay with OVCAR-4, with OVCAR-5, in the assay with OVCAR-8 and in the assay on RXF 393 was > 100 µM (inactive) in each case. The GI50 in the assay with SF-295, in the assay on SK-MEL-2, in the assay with T47D, in the assay with TK-10, in the assay on UACC-257 and in the assay with UO-31 was > 100 µM (inactive) in each case.

`C[N+](C)(C)CC(=O)N/N=C(/CC(=O)CC(C1=C(O)c2ccccc2OC1)c1ccccc1)C(=O)Nc1cccc(Cl)c1` (stereo unspecified): the GI50 with 786-0 is > 100 µM (inactive); in the assay on HCT-116, > 100 µM (inactive); in the assay with HCT-15, greater than 100 µM; in the assay on HL-60, > 100 µM (inactive); in the assay on M14, > 100 µM (inactive); in the assay with NCI-H226, > 100 µM (inactive). In addition, the GI50 in the assay with NCI-H460 was > 10 µM (inactive); in the assay with OVCAR-4, > 100 µM (inactive); in the assay on OVCAR-5 it was > 100 µM (inactive); in the assay with OVCAR-8, > 100 µM (inactive); with RXF 393, > 100 µM (inactive); with SF-295 it was > 100 µM (inactive). Further, the GI50 in the assay with SF-539, with SK-MEL-2, with SNB-75, with T47D, in the assay on TK-10 and in the assay with UACC-257 was > 100 µM (inactive) throughout. The GI50 in the assay on UO-31 was > 100 µM (inactive).

`CC1(C)CC(=O)c2c(nc3ccc4ccccc4c3c2-c2ccc(NC(=O)CCC(=O)Nc3ccc(-c4c5c(nc6ccc7ccccc7c46)CC(C)(C)CC5=O)cc3)cc2)C1`: the GI50 in the assay with 786-0, in the assay on HCT-116, in the assay on HL-60, with M14, with NCI-H226 and in the assay with NCI-H460 was > 100 µM (inactive) in each case. The GI50 in the assay with OVCAR-5, with OVCAR-8, in the assay on RXF 393, in the assay with SF-295, in the assay on SF-539 and with SK-MEL-2 was > 100 µM (inactive) throughout. Further, the GI50 with SNB-75 is 28.2 µM (inactive); with T47D, > 100 µM (inactive); with TK-10, > 100 µM (inactive); in the assay with UACC-257, > 100 µM (inactive); with UO-31, > 100 µM (inactive).

In the case of `NN/C(=N\S(=O)(=O)c1cc(S(=O)(=O)c2ccccc2)cs1)Nc1ccc(Cl)cc1`, the GI50 was 35.2 µM (inactive) in the assay on 786-0; 20.9 µM (inactive) in the assay with HCT-116; 34.3 µM in the assay with HCT-15; 4.58 µM (inactive) with HL-60; 22 µM (inactive) in the assay with M14; 33.1 µM (inactive) in the assay on NCI-H226. The GI50 with NCI-H460 was 22.5 µM (inactive); with OVCAR-4, 20 µM (inactive); in the assay with OVCAR-5 it was 66.2 µM (inactive); with OVCAR-8, 32.4 µM (inactive); with RXF 393, 14.9 µM (inactive); with SF-295, 17.6 µM (inactive). Further, the GI50 in the assay on SF-539 was 42.7 µM (inactive); in the assay on SK-MEL-2, 16.7 µM (inactive); in the assay with SNB-75, 21.9 µM (inactive); with T47D, 13.8 µM (inactive); in the assay on TK-10, 24.8 µM (inactive); with UACC-257, 19 µM (inactive). The GI50 in the assay with UO-31 was 28.8 µM (inactive).

With `c1cc(-c2ccc(-c3ccsc3)s2)cs1`, the GI50 with 786-0 is 36.1 µM (inactive); with HCT-116, > 100 µM (inactive); in the assay on HCT-15, greater than 100 µM; in the assay on HL-60, 19.2 µM (inactive); in the assay with M14, 31 µM (inactive); in the assay with NCI-H226, 47.5 µM (inactive). Also, the GI50 is > 100 µM (inactive) in the assay on NCI-H460; 18.1 µM (inactive) in the assay on OVCAR-4; > 100 µM (inactive) with OVCAR-5; 48.8 µM (inactive) with OVCAR-8; 73.1 µM (inactive) in the assay on RXF 393; 54 µM (inactive) in the assay with SF-295. In addition, the GI50 is 36.4 µM (inactive) with SF-539; 23.9 µM (inactive) in the assay on SNB-75; > 100 µM (inactive) in the assay on T47D; 76.4 µM (inactive) with TK-10; > 100 µM (inactive) with UACC-257; 28.1 µM (inactive) in the assay on UO-31.

For the compound `CC1(C)CCc2c(cc3c(c2O)CCC(C)(C)O3)O1`, the GI50 with 786-0 is > 10 µM (inactive); in the assay with HCT-116 it was 61.2 µM (inactive); with HCT-15, 64.7 µM; with HL-60, 27.3 µM (inactive); with M14, > 100 µM (inactive); in the assay with Malme-3M it was 12.3 µM (inactive). Further, the GI50 in the assay on NCI-H226 is > 100 µM (inactive); with NCI-H460, 57 µM (inactive); in the assay on OVCAR-4, > 100 µM (inactive); in the assay with OVCAR-5, > 100 µM (inactive); in the assay with OVCAR-8, > 100 µM (inactive); with SF-295 it was 96.8 µM (inactive). For the same compound, the GI50 in the assay with SF-539 is > 100 µM (inactive); in the assay with SK-MEL-2, 25.1 µM (inactive); with SNB-75, 80.5 µM (inactive); in the assay on T47D, 41.8 µM (inactive); in the assay on TK-10, > 100 µM (inactive); with UACC-257, > 100 µM (inactive). Moreover, the GI50 in the assay with UO-31 is > 100 µM (inactive).

On to `O=C1CSC2=NC3=C(CSC/C3=C\c3ccccc3)C(c3ccccc3)N12` (stereo unspecified), for which the GI50 in the assay on 786-0 was > 100 µM (inactive); in the assay with HCT-116, 50.2 µM (inactive); with HCT-15 it was greater than 100 µM; with HL-60, 32.2 µM (inactive); with M14 it was 41.5 µM (inactive); in the assay with Malme-3M, > 100 µM (inactive). Further, the GI50 in the assay on NCI-H226 is > 100 µM (inactive); in the assay on NCI-H460 it was 81.3 µM (inactive); in the assay with OVCAR-4 it was > 100 µM (inactive); in the assay on OVCAR-5, > 100 µM (inactive); in the assay with OVCAR-8, 86.5 µM (inactive); with SF-295, > 100 µM (inactive). The GI50 in the assay with SF-539 was > 100 µM (inactive); with SK-MEL-2, > 100 µM (inactive); in the assay on SNB-75 it was 29.6 µM (inactive); in the assay with T47D, 52.2 µM (inactive); in the assay on TK-10, > 100 µM (inactive); in the assay with UACC-257, > 100 µM (inactive). Also, the GI50 in the assay on UO-31 was 24.9 µM (inactive).

`CCOC(=O)c1cc(C)nc2c1c(=O)n(-c1ccccc1)c(=O)n2CCCCN1CCN(c2ncccn2)CC1`: the GI50 in the assay with 786-0 is > 100 µM (inactive); in the assay on HCT-116 it was 85.5 µM (inactive); in the assay with HL-60, 25.4 µM (inactive); with M14 it was > 100 µM (inactive); in the assay with Malme-3M it was > 100 µM (inactive); in the assay with NCI-H226, > 100 µM (inactive). Besides, the GI50 in the assay on OVCAR-5 was > 100 µM (inactive); in the assay with OVCAR-8, > 100 µM (inactive); with RXF 393 it was > 100 µM (inactive); in the assay on SF-295, > 100 µM (inactive); with SK-MEL-2 it was > 100 µM (inactive); in the assay on SNB-75 it was 59 µM (inactive). Moreover, the GI50 with T47D was 43.5 µM (inactive); in the assay with TK-10, > 100 µM (inactive); in the assay on UACC-257, 52.4 µM (inactive); with UO-31, 38.5 µM (inactive).

As for `N#Cc1nc(CCc2nc(C#N)c(N)o2)oc1N`, the GI50 in the assay with 786-0 was > 10 µM (inactive); with HCT-116, > 10 µM (inactive); in the assay with HCT-15, greater than 10 µM; in the assay on HL-60, > 10 µM (inactive); in the assay with M14, > 10 µM (inactive); in the assay with Malme-3M it was > 10 µM (inactive). The GI50 in the assay with NCI-H226, in the assay with NCI-H460, in the assay with OVCAR-4, with OVCAR-5, in the assay on OVCAR-8 and in the assay on RXF 393 was > 10 µM (inactive) in each case. Besides, the GI50 in the assay on SF-295, with SF-539, in the assay on SNB-75, in the assay with T47D, with TK-10 and in the assay on UACC-257 was > 10 µM (inactive) throughout. The GI50 with UO-31 was > 10 µM (inactive).

In the case of `COC1=C2C=[N+](C)C3C(=C2C=CC1OC)Cc1cc2c(cc13)OCO2` (stereo unspecified), the GI50 in the assay with 786-0 was 11.9 µM (inactive); in the assay on HCT-116, 13.8 µM (inactive); with HCT-15, 17.7 µM; in the assay with HL-60, 4.61 µM (inactive); with M14, 15.5 µM (inactive); in the assay with Malme-3M it was 3.88 µM (inactive). Besides, the GI50 in the assay on NCI-H226 is 15.4 µM (inactive); in the assay with OVCAR-4, 10.5 µM (inactive); in the assay with OVCAR-5 it was 18.2 µM (inactive); in the assay with OVCAR-8, 22 µM (inactive); in the assay with SF-295 it was 15.3 µM (inactive); in the assay with SF-539, 11.8 µM (inactive). In addition, the GI50 with SK-MEL-2 is 15.5 µM (inactive); in the assay with SNB-75, 14.8 µM (inactive); with T47D, 5.02 µM (inactive); in the assay with TK-10 it was 15.5 µM (inactive); in the assay on UACC-257, 11.4 µM (inactive); in the assay with UO-31 it was 13.7 µM (inactive).
